Values quoted from earlier work in patent publication US6583123B2, “Aminosugar, glycosaminoglycan, and S-adenosylmethionine composition for the treatment and repair of connective tissue” (Nutramax Laboratories, Inc., priority 1996, dated 2003).

Key:
[1] = SAM per se (not stable salts)
[2] = some forms of exogenous SAM, given orally
[3] = oral, humans, versus placebo
[4] = test system: fibroblasts; settings: in vitro
[5] = test system: wound healing; settings: topical application, in vivo
[6] = test system: osteoarthritis; settings: humans with osteoarthritis
[7] = test system: inflammation
[8] = not given; remark: listed apart in the source

C[S+](CC[C@H](N)C(=O)[O-])C[C@H]1O[C@@H](n2cnc3c(N)ncnc32)[C@H](O)[C@@H]1O (stereo partly shown) [SAM, S-Adenosylmethionine]
stability [1]: unstable | stability in digestive juices [2]: stable in digestive juices | tolerability [3]: tolerated to the same extent as placebo

N[C@H]1C(O)O[C@H](CO)[C@@H](O)[C@@H]1O (stereo partly shown) [Glucosamine]
absorption after oral administration (humans and animals): rapidly absorbed | tissue localization of ingested glucosamine (oral): localizes to cartilage and joint tissues | synthesis of collagen and glycosaminoglycans [4]: increase the synthesis of collagen and glycosaminoglycans | wound healing [5]: enhanced wound healing | symptoms and cartilage integrity [6]: reproducible improvement in symptoms and cartilage integrity

Nc1ncnc2c1ncn2[C@@H]1O[C@H](CO)[C@@H](O)[C@H]1O [adenosine]
anti-inflammatory effect [7]: more modest anti-inflammatory effect

[Mn+2] [manganese]
dietary manganese absorbed by the body tissue [8]: Approximately 40%
